Data reported in article PMC7170309, “Imidazopyridine-fused [1,3]diazepinones: modulations of positions 2 to 4 and their impacts on the anti-melanoma activity” (Journal of Enzyme Inhibition and Medicinal Chemistry, 2020).

Assays:
Assay type in all cases: cell-based, human
[1] = system: MDA-MB-231; experiment: NCI-60 SRB assay, MDA-MB-231 (Breast Cancer); details: 10 µM, 48 h; for G%: growth vs untreated control;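 on Mean G% - G%: mean growth across the NCI-60 panel minus this line's growth with positive meaning more sensitive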
Experimental: (§1) Primary anticancer assay was performed on a panel of 60 human cancer cell lines derived from nine neoplastic diseases, in accordance with the protocol of the Drug Evaluation Branch, National Cancer Institute, Bethesda, Maryland, USA[22]. Cells were incubated with tested compounds at 10 µM for 48 h. The growth percentage was evaluated spectrophotometrically using a protein binding dye, SRB. Results for each tested compound were reported as the percent of growth of treated cells when compared to untreated control cells.
(§2) To better compare the activity profile of these two series of compounds, compounds 5 and 8 were selected and then evaluated towards a panel of sixty cancer cell lines corresponding to nine different cancer types, i.e. leukaemia, melanoma, as well as lung, colon, central nervous system, ovarian, renal, prostate and breast cancers (NCI evaluation). Indeed, it is now well established that the growth inhibitory patterns of anticancer drugs against the NCI-60 cell line panel correlated well with their modes of action. For example, compounds that bind to tubulin have similar growth inhibition patterns regardless of which site on tubulin they bind[30]. […] Compounds were tested using the sulforhodamine B (SRB) assay that provides a direct cell density index. The amount of dye incorporated by the cells increases with the increase of the total protein biomass. Cells were incubated for 48 h with compounds at 10 µM concentration, then cell growth was evaluated spectrophotometrically and presented as the percent of untreated control cells. Values of the most sensitive cell lines were compared to those obtained with JMV5038 (Figure 4, for all data see SI).

[2] = system: KM12; experiment: NCI-60 SRB assay, KM12 (Colon Cancer); details: 10 µM, 48 h; for G%: growth vs untreated control
Experimental: as §1, §2

[3] = system: MDA-MB-435 cells; experiment: DNA cell cycle analysis (flow cytometry); details: 5 µM; for proportion of cells in G2/M phase: control 14.3%; for proportion of cells in G1 phase: control 47.1%
Experimental: The cell cycle analysis was performed as previously described to compare data with our previous results. Flow cytometric analysis was performed on 350,000 MDA-MB-435 cells seeded in culture dishes (60 mm diameter) and allowed to grow for 48 h. Cells were then treated with compound 5 or 8 at 5 µM concentration for 16 h and 48 h. After treatment cells were harvested and fixed with 70% ethanol. The fixed cells were then incubated with 10 mg/mL RNase A (Sigma Aldrich) and 1 mg/mL propidium iodide (Sigma Aldrich), in the dark, for 24 h at 4 °C. Finally, DNA content of the cells was analysed using Gallios Beckman Coulter flow cytometer with FlowJo software v1.0.
Thus, compound 5 could probably shared a common mechanism of action with JMV5038, contrary to compound 8. DNA cell cycle analysis was performed using MDA-MB-435 cells treated with either compound 5 or compound 8, and compared to that obtained with cells treated with vehicle (DMSO) as a negative control. Cell cycle pattern changes of MDA-MB-435 cells were investigated using fluorescence-activated cell sorting (FACS) (Figure 5 and Figure S1, SI). In this experiment MDA-MB-435 cells were treated with or without 5 µM concentration of compound 5 or 8 for 16 h and 48 h.

[4] = system: NCI-H23; experiment: NCI-60 SRB assay, NCI-H23 (NSCLC); details: 10 µM, 48 h; for G%: growth vs untreated control
Experimental: as §1, §2

[5] = system: T-47D; experiment: NCI-60 SRB assay, T-47D (Breast Cancer); details: 10 µM, 48 h; for G%: growth vs untreated control
Experimental: as §1, §2

[6] = system: HOP-62; experiment: NCI-60 SRB assay, HOP-62 (NSCLC); details: 10 µM, 48 h; for G%: growth vs untreated control;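 on Mean G% - G%: mean growth across the NCI-60 panel minus this line's growth with positive meaning more sensitive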
Experimental: as §1, §2

[7] = system: CAKI-1; experiment: NCI-60 SRB assay, CAKI-1 (Renal Cancer); details: 10 µM, 48 h; for G%: growth vs untreated control
Experimental: as §1, §2

[8] = system: RPMI-8226; experiment: NCI-60 SRB assay, RPMI-8226 (Leukemia); details: 10 µM, 48 h; for G%: growth vs untreated control
Experimental: as §1, §2

[9] = system: MDA-MB-435 melanoma cells; experiment: Neutral red uptake (NRU) viability assay, MDA-MB-435; details: Homo sapiens, MDA-MB-435; NRU assay, 72 h, mean ± SD of three experiments
Experimental: (§3) Melanoma human cancer cell line (A375 and MDA-MB-435) were obtained from ATCC. The NIH-3T3 cell line was generously gifted by the ANSM (French National Agency for Medicines and Health Products Safety, Vendargues, France). Cells were cultured in Dulbecco’s Modified Eagle Medium (DMEM, Sigma Aldrich) supplemented with 10% heat-inactivated foetal calf serum (FCS, Gibco), 2 mM glutamax (Gibco), 100 IU/mL penicillin G sodium (Sigma Aldrich), 100 lU/mL streptomycin sulphate (Sigma Aldrich). The cells were allowed to grow at 37 °C in a fully humidified atmosphere containing 5% CO2.
(§4) A viability assay was used to evaluate the cytotoxic activity on A375 and MDA-MB-435 melanoma cells as previously described. According to OCDE/ICCVAM guidance n°129, NRU assay was also used to evaluate the toxicity on the non-cancerous NIH-3T3 cells. Cells were seeded at a final concentration of 2000 cells/well (A375), 3000 cells/well (NIH-3T3) or 7500 cells/well (MDA-MB-435) in 96-well microtiter plates for 24 h. Then, cells were exposed to two negative controls (1% DMSO in culture medium (vehicle) and culture medium alone), or to different compounds freshly dissolved in DMSO, in a range of concentration from 0.01 to 40 µM (six wells per concentration). After 72 h of incubation, cells were stained with new medium containing 50 µg/mL of neutral red (3-amino-7-dimethylamino-2-methylphenazine hydrochloride, Sigma Aldrich) at 37 °C for 2 h. The neutral red medium solution was then removed and the wells were washed with PBS. Finally, 100 µL of solution containing ethanol, acetic acid and water (50/1/49 v/v/v respectively) were added into the wells and the absorbance was measured at 540 nm using the microplate reader 352 Multiscan MS (Labsystems). Cell survival rates were normalised to the absorbance values of untreated control cells. IC50 was obtained using a logistic regression model on Graphpad Prism 5.0 software. Results are given as the mean ± standard deviation (SD) of three independent experiments. Statistical analysis was performed using the Student’s t-test.

[10] = system: DU-145; experiment: NCI-60 SRB assay, DU-145 (Prostate Cancer); details: 10 µM, 48 h; for G%: growth vs untreated control
Experimental: as §1, §2

[11] = system: MOLT-4; experiment: NCI-60 SRB assay, MOLT-4 (Leukemia); details: 10 µM, 48 h; for G%: growth vs untreated control
Experimental: as §1, §2

[12] = system: HT29; experiment: NCI-60 SRB assay, HT29 (Colon Cancer); details: 10 µM, 48 h; for G%: growth vs untreated control;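 on Mean G% - G%: mean growth across the NCI-60 panel minus this line's growth with positive meaning more sensitive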
Experimental: as §1, §2

[13] = system: HL-60(TB); experiment: NCI-60 SRB assay, HL-60(TB) (Leukemia); details: 10 µM, 48 h; for G%: growth vs untreated control
Experimental: as §1, §2

[14] = system: SF-295; experiment: NCI-60 SRB assay, SF-295 (CNS Cancer); details: 10 µM, 48 h; for G%: growth vs untreated control
Experimental: as §1, §2

[15] = system: A375 melanoma cells; experiment: Neutral red uptake (NRU) viability assay, A375; details: Homo sapiens, A-375, 72 h, mean ± SD of three experiments
Experimental: as §3, §4

[16] = system: SF-539; experiment: NCI-60 SRB assay, SF-539 (CNS Cancer); details: 10 µM, 48 h; for G%: growth vs untreated control
Experimental: as §1, §2

SMILES	Mean G% - G% [1]	G% [1]	Mean G% - G% [2]	G% [2]	Mean G% - G% [4]	G% [4]	Mean G% - G% [5]	G% [5]	Mean G% - G% [6]	G% [6]	Mean G% - G% [7]	G% [7]	IC50 [9] [µM]	Mean G% - G% [10]	G% [10]	Mean G% - G% [12]	G% [12]	Mean G% - G% [14]	G% [14]	IC50 [15] [µM]	also measured
C[C@@H]1NC(c2csc3ccccc23)=Nc2nc3ccccn3c2C1=O [Compound 8, (4S)-4-methyl-2-benzothiophen-3-yl-3,4-dihydro-5H-pyrido[1’,2’:1,2]imidazo[4,5-d][1,3]diazepin-5-one]	6,94%	67,93%	4,90%	69,97%	3,92%	70,95%	28,96%	45,91%	23,74%	51,13%	39,76%	35,11%	10.12 ± 0.08	2,24%	72,63%	-10,58%	85,45%	-8,66%	83,53%	7.97 ± 0.65	proportion of cells in G2/M phase ([3]; 16 h): 20.8%; proportion of cells in G1 phase ([3]; 16 h): 53.0%; proportion of cells in G2/M phase ([3]; 48 h): 15.4%; Mean G% - G% [8]: 24,51%; G% [8]: 50,36%; Mean G% - G% [11]: -8,59%; G% [11]: 83,46%; Mean G% - G% [13]: 6,00%; G% [13]: 68,87%; Mean G% - G% [16]: -1,87%; G% [16]: 76,74%
C[C@@H]1NC(c2ccc(Br)cc2)=Nc2nc3ccccn3c2C1=O [JMV5038]	1,53%	52,71%	24,69%	29,55%	0,57%	53,67%	-12,99%	67,23%	-1,60%	55,84%	10,09%	44,15%	1.3 ± 0.53	-33,50%	87,74%	36,72%	17,52%	13,36%	40,88%	2.1 ± 0.42	Mean G% - G% [8]: -39,73%; G% [8]: 93,97%; Mean G% - G% [11]: -3,27%; G% [11]: 57,51%; Mean G% - G% [16]: -20,40%; G% [16]: 74,64%
C[C@@H]1NC(c2ccc(N=[N+]=[N-])cc2)=Nc2nc3ccccn3c2C1=O [Compound 5, (4S)-4-methyl-2-(4-azidophenyl)-3,4-dihydro-5H-pyrido[1’,2’:1,2]imidazo[4,5-d][1,3]diazepin-5-one]	4,91%	80,35%	27,28%	57,98%	-1,81%	87,07%	8,29%	76,97%	6,31%	78,95%	10,49%	74,77%	4.75 ± 0.21	-18,38%	103,64%	10,46%	74,80%	-8,18%	93,44%	7.13 ± 0.51	proportion of cells in G2/M phase ([3]; 16 h): 33.1%; proportion of cells in G1 phase ([3]; 16 h): decrease of cells in G1 phase; proportion of cells in G2/M phase ([3]; 48 h): 18.4%; cells in subG1 phase (apoptosis) ([3]; time not explicit (sentence follows 48 h), control 1.2%): 2.4%; Mean G% - G% [16]: -2,57%; G% [16]: 87,83%
[N-]=[N+]=NCCCC[C@@H]1NC(c2ccc(Br)cc2)=Nc2nc3ccccn3c2C1=O [Compound 16, (4S)-4-(4-azidobutyl)-2-(4-bromophenyl)-3,4-dihydro-5H-pyrido[1’,2’:1,2]imidazo[4,5-d][1,3]diazepin-5-one]	16,73%	75,04%	10,11%	81,66%	-7,34%	99,11%	10,17%	81,60%	14,42%	77,35%	7,26%	84,51%	4.12 ± 0.22	-10,18%	101,95%	-14,13%	105,90%	-4,02%	95,79%	3.68 ± 0.63	Mean G% - G% [11]: 4,57%; G% [11]: 87,20%; Mean G% - G% [13]: 18,52%; G% [13]: 73,25%; Mean G% - G% [16]: -6,24%; G% [16]: 98,01%
